This note sets out measurements from US20080103209A1, “Compounds And Methods For Treating Non-Inflammatory Pain Using Ppar Alpha Agonists” (The Regents of The University of California, priority 2004, published 2008).

In test [1] the test system is mice. In words: Formalin-evoked pain behavior (hind paw licking). The class given is in vivo, mouse. To be noted: for effect of CB2 antagonist on antinociceptive effect of GW7647: GW7647 50 μg i.pl.; for effect of CB2 antagonist on antinociceptive effect of GW7647 / effect of CB2 antagonist on antinociceptive effect of PEA: AM630 2 mg-kg^−1 i.p.; for effect of CB2 antagonist on antinociceptive effect of PEA: PEA 50 μg i.pl.; for phase I and II formalin pain in wild-type mice: wild-type C57BL6 mice. Here is the method:
Administration of formalin into the mouse hind paw evokes a pain behavior consisting of two temporally distinct phases of licking and flexing of the injected limb (Dubuisson, et al., Pain 4, 161-74 (1977)). The first phase, which starts immediately after formalin injection and lasts 5-10 min, is due to activation of nociceptive fibers and is accompanied by the local release of nitric oxide and adenosine [Dickenson, et al., Neurosci Lett 83, 207-11 (1987); Omote, et al., Brain Res 787, 161-4 (1998); Omote et al., 2000; Liu, et al., J Neurochem 80, 562-70 (2002)]. Following a quiescent interval of 10-15 minutes, a second phase of nociceptive behavior appears, which is associated with local inflammation [Rosland, et al., Pain 42, 235-42 (1990)] and central sensitization [Coderre, et al., J Neurosci 12, 3665-70 (1992)]. […] (2001); Farquuar-Smith, 2002]. […] The effects of PEA in C57BL/6J mice in which the PPARα gene had been deleted by homologous recombination (PPARα^−/−)[Lee, et al., Mol Cell Biol 15, 3012-22 (1995)] were examined to determine whether PPARα contributes to these properties.
Although PPARα is known to regulate the inflammatory response [Devchand, et al., Nature 384, 39-43. (1996); Cabrero, et al., Curr Drug Targets Inflamm Allergy 1, 243-8 (2002); Berger, et al., Annu Rev Med 53, 409-35 (2002); Chinetti, et al., Inflamm Res 49, 497-505 (2000)], its roles in the modulation of acute nociceptive pain remain unexplored. A series of structurally diverse PPAR-α agonists were tested for their ability to reduce pain behavior in an animal model of chemical tissue damage. Injection of formalin into the mouse hind paw evokes a nocifensive behavior consisting of two distinct phases. The first phase results from direct activation of nociceptive fibers and starts immediately after formalin administration, while the second phase develops over a period of approximately 60 min and is associated with local inflammation and central sensitization.
Mice received intraplantar injections of formalin (5% vol/vol, 10 μl) in saline containing polyethylene glycol (5%) and Tween 80 (5%). The duration of paw licking was monitored by an observer for periods of 0-15 min (early or first phase) and 15-45 min (late or second phase) immediately after formalin administration.
Formalin test. Formalin (5%, 10 μl)-induced paw licking was monitored for 0-15 min (first phase) and 15-45 min (second phase) as described (Calignano, et al., Nature 394, 277-81 (1998).

Another test deals with T1, human PPARα (Homo sapiens, UniProt Q07869).
T1 construct: expressed in transfected cells
T1 sequence (Q07869 239-466 limits assumed): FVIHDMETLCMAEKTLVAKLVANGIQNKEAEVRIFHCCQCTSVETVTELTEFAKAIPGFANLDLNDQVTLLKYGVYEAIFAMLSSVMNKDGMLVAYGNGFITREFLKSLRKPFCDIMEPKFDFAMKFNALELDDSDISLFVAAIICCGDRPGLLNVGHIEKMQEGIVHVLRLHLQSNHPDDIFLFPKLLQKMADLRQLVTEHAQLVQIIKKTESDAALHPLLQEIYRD
Description: PPARα transactivation assay (HeLa cells, luciferase reporter). The class given is cell-based. As to the method: Transactivation assays were performed as previously described [Fu et al., Nature 425:90-93 (2003)].
PPAR-α transactivation. Plasmids were generated which contained the ligand-binding domain of human PPAR-α (nucleotides 499-1,407) fused to the DNA-binding domain of yeast GAL4 under control of the human cytomegalovirus promoter and to a neomycin resistance gene to provide stable selection with 0.2 mg-ml-1 G418 (Calbiochem). We cultured HeLa cells in Dulbecco's-modified Eagles's medium (DMEM) supplemented with fetal bovine serum (10%), transfected them with Fugene 6 ([…], Roche) containing the pFR-luc plasmid ([…], Stratagene) and, 18 h later, replaced the media with DMEM containing hygromycin (0.1 mg ml−1, Calbiochem). […] Cells were maintained in DMEM containing hygromycin and G418. For transactivation assays, we seeded cells in 6-well plates and incubated them for 7 h in DMEM containing hygromycin and G418, plus appropriate concentrations of test compounds. We used a dual-luciferase reporter assay system (Promega) and an MLX Microtiter® plate luminometer (Dynex) to determine luciferase activity in cell lysates.
A general note: In a reporter assay the amount or activity of a reporter protein is the signal.

A further test has as its system Swiss mice. Description: Sciatic nerve ligation neuropathy, mechanical and thermal hyperalgesia. The class given is in vivo, mouse. As to the method: To examine whether PPARα agonists modulate the persistent pain hypersensitivity associated with nerve injury, peripheral neuropathy was produced in mice by partially ligating the left sciatic nerve, a surgical procedure that results in the development of mechanical and thermal hyperalgesia in the operated limb (Bennett et al., Pain, 33, 87 (1988)).
Sciatic nerve ligation was performed essentially following the method of Bennett and Xie (Bennett et al., Pain 33, 87 (1988)). Briefly, male Swiss mice were anesthetized with sodium pentobarbital, the left sciatic nerve was exposed at mid-thigh level through a small incision and one-third to one-half of the nerve thickness was tightly ligated with a silk thread. The wound was closed with a single muscle suture and skin clips, and dusted with streptomycin powder. In sham-operated animals, the nerve was exposed but not ligated.
Mechanical hyperalgesia was determined by measuring paw withdrawal thresholds to an increasing pressure onto the dorsal surface of the paw using an analgesimeter (Ugo Basile, Italy) with a cut-off of 250 g. Withdrawal thresholds were measured on both the ipsilateral paw (inflamed or ligated) and contralateral paw (uninflamed or unligated) 60 min after subcutaneous drug administration.
Thermal hyperalgesia was assessed by the methods of Hargreaves (Hargreaves et al., Pain, 32, 77 (1988)) by measuring the latency to withdraw the hind paws from a focussed beam of radiant heat applied to the plantar surface, using an appropriate apparatus (Ugo Basile, Italy). The cut-off time was set at 30 sec. The mice were habituated to the apparatus for 10-15 min two days prior to the experiment.

For test [2], the system named is mice. In words: Carrageenan-evoked paw edema (acute). The class given is in vivo, mouse. To be noted: wild-type C57Bl6J; PEA 10 mg-kg^−1 i.p., WY-14643 20 mg-kg^−1 i.p. The text has this: (§1) In addition to rapid-onset analgesia, PEA also exerts prolonged anti-inflammatory effects [Benvenuti, et al., Boll Soc It Biol Sper 44, 809-813 (1968); Lambert, et al., Curr Med. Chem. 9, 663-74 (2002)], which are associated with the down-regulation of pro-inflammatory proteins such as nitric oxide synthase (NOS) [Costa, et al., Br J Pharmacol 137, 413-20. (2002)]. Two models of acute inflammation were used to examine whether such effects are mediated through PPARα. First, paw edema was induced in C57B16J wild-type and PPARα^−/− mice by local injection of the irritant, carrageenan [Cirino, et al., Eur J Pharmacol 166, 505-10 (1989)]. […] Next, ear edema was produced in CD1 mice by topical administration of the phorbol ester, 12-O-tetradecanoylphorbol-13-acetate (TPA) [Sheu, et al., J Invest Dermatol., 94-101. (2002)]. […] In a parallel set of experiments, the effects of PEA (20 μg) on TPA-induced edema were tested in C57B16J wild-type and PPARα^−/− mice. […] Together, these findings indicate that PEA reduces acute nociception and inflammation through activation of PPARα.
An inflammatory response was initiated by injecting 2% (w v^−1, 20 μl) λ-carrageenan in sterile saline into mice hind paws using a 27-gauge needle. Drugs were administered 30 minutes before carrageenan (i.p.). Paw edema was measured using a plethysmometer (Ugo Basile, Italy).
In general terms: The carrageenan paw model is a standard test of acute inflammation.

The test system of test [3] is mice. In words: TPA-induced ear edema (irritant contact dermatitis). The class given is in vivo, mouse. As to conditions: topical co-application, CD1 mice.
Description: as §1
As previous described procedure [Sheu, et al., J Invest Dermatol., 94-101. (2002)], 12-O-tetradecanoylphorbol-13-acetate (TPA) was dissolved in acetone (0.03%, w v^−1) and topically delivered with a pipette to the inner and outer surfaces (10 μl/side) of mice ears. Experimental agents were dissolved in acetone and delivered topically (20 μl/side) 45 minutes and 4 hours after TPA. 18 hours after TPA administration, the mice were euthanized with CO2 and the ears punched (diameter=2 mm) four times. The 4 excised punches of skin were combined and weighed to assess edema.

For the next test, the target named is T2, human CB2 (Homo sapiens, UniProt P34972).
T2 construct: purchased Perkin-Elmer, Boston, Mass; host or cells: CHO cells (membranes)
Description: CB2 receptor binding, [3H]-WIN-55212-2 displacement in CB2-overexpressing CHO cell membranes.

The test system of test [4] is mice. Description: Magnesium sulfate-evoked writhing test. To be noted: subcutaneous, Swiss mice. The class given is in vivo, mouse. As to the method: Mice received a single dose of magnesium sulfate (120 mg/kg, dissolved in 0.5 ml saline, i.p.) and subsequent writhing episodes were monitored for a period of 30 min thereafter. Drugs were administered in saline/Tween 80/polyethylenglycol, (90/5/5) subcutaneously, 30 minutes before magnesium sulfate.
Next, the effect of PPARα agonists on the nocifensive behavior elicited by intraperitoneal injection of magnesium sulfate in mice, a model of visceral pain (Calignano, et al, Eur J Pharmacol 419, 191-8. (2001)), was explored.
Writhing test. Magnesium sulfate was injected (120 mg-kg^−1 in 0.5 ml saline, i.p.) in 12-h food-deprived mice and measured writhing episodes for 30 min (Calignano, et al, Eur J Pharmacol 419, 191-8. (2001)). Drugs or vehicle were administered by subcutaneous injection 30 min before magnesium sulfate.
(In writhing tests, fewer writhes than in controls are read as antinociception.)

Where [5] appears, read: formalin, Swiss mice, SR144528 1 mg-kg^−1.

T2 sequence (P34972 whole entry): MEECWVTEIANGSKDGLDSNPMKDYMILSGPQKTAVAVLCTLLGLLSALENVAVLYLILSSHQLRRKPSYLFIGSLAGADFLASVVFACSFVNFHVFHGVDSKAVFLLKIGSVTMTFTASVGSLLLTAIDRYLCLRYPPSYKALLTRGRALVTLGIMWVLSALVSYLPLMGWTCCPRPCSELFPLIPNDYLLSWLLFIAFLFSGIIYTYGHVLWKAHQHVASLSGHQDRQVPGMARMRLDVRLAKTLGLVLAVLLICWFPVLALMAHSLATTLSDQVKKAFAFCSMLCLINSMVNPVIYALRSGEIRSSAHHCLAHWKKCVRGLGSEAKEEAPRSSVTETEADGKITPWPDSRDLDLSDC

`Cc1c(C(=O)NN2CCCCC2)nn(-c2ccc(Cl)cc2Cl)c1-c1ccc(Cl)cc1` [SR141716]: the “effect on antinociception by anandamide plus PEA or GW7647” value in the test with mice [1] (SR141716 0.1 mg kg^−1 i.v., 10 min before formalin, agonists 0.1 μg/paw each) is “prevents”.

On to SR144528, for which, in the test on mice [1] (setting [5]), the “effect of CB2 antagonist on antinociceptive effect of GW7647” value is listed as “reverse” and the “effect of CB2 antagonist on antinociceptive effect of PEA” value was “blocked”. In the test on mice [1] (formalin, Swiss mice, Wy-14643 100 μg i.pl., SR144528 1 mg-kg^−1), the “effect of CB2 antagonist on antinociceptive effect of Wy-14643” value is “reverse”. Besides, on human PPARα (PEA 10 μM, SR144528 0-5 μM), the “antagonism of PEA-induced PPARα activation in vitro” value is recorded as “did not significantly antagonize”.

Take `CC1(COc2ccc(CC3SC(=O)NC3=O)cc2)CCCCC1` (stereo not drawn) [ciglitazone]: in the test on mice [1] (50 μg i.pl.), the “phase I and II formalin pain in wild-type mice” value is “inactive”.

With `COc1ccc(C(=O)c2c(C)n(CCN3CCOCC3)c3cc(I)ccc23)cc1` [AM630], in the test on mice [1] (setting [5]), the “effect of CB2 antagonist on antinociceptive effect of GW7647” value is “did not affect” and the “effect of CB2 antagonist on antinociceptive effect of PEA” value was “did not affect”.

For `CCCCC/C=C\C/C=C\C/C=C\C/C=C\CCCC(=O)N[C@H](C)CO` [(R)-methanandamide], the “formalin pain in PPARα−/− mice” value in the test on mice [1] (PPARα−/− mice, 50 μg i.pl.) is given as “reversed”.

As for `CCCCCCCCCCCCCCCC(=O)O` [palmitic acid], the “PPARα activation” value at human PPARα (HeLa cells, identical conditions) is listed as “no effect”.

As for `NCC1(CC(=O)O)CCCCC1` [gabapentin], in the test with Swiss mice (data not shown), the “mechanical and thermal pain thresholds in the non-ligated paw of neuropathic mice” value was “did not affect”. The “neuropathic hypersensitivity (mechanical and thermal pain thresholds), ligated limb” value in the test with Swiss mice (single s.c. dose day 7 and 14 after surgery, 60 min before test, PEA, GW7647 30 mg-kg^−1, gabapentin 60 mg-kg^−1) is on record as “comparable in magnitude”.

With `Cc1cc(SCc2sc(-c3ccc(C(F)(F)F)cc3)nc2C)ccc1OCC(=O)O` [GW501516], in the test with mice [1] (50 μg i.pl.), the “phase I and II formalin pain in wild-type mice” value was “inactive”.

As to `Cc1cccc(Nc2cc(Cl)nc(SCC(=O)O)n2)c1C` [Wy-14643, [4-chloro-6-(2,3-xylidino)-2-pyrimidinylthio]acetic acid], the “carrageenan paw edema in wild-type mice” value in the test on mice [2] was “decreased edema”. Further, the “first- and second-phase nociception” value in the test on mice [1] (Swiss mice, i.pl. together with formalin, GW7647 0.1-50 μg, Wy-14643 50-200 μg, fenofibric acid 100-400 μg) is “attenuated first- and second-phase nociception in a dose-dependent manner”. Moreover, the “average half-maximal effective dose (ED50) to reduce first-phase pain” value with mice [1] (intraplantar with formalin, Swiss mice, ten experiments) came to 97.0 µg. Moreover, in the test on mice [3], the “TPA-induced ear edema formation” value is “attenuated”. In addition, the “[^3H]-WIN-55212-2 Binding (% of control)” value at human CB2 (Concentration 1 μM) is 104.2 ± 3.6 % of control; on human CB2 (Concentration 10 μM), 105.6 ± 1.5 % of control. In the test on mice [4] (n=8), the “average ED50, magnesium sulfate-evoked writhing” value worked out at 25 mg/kg. The “number of writhing episodes evoked by magnesium sulfate” value in the test on mice [4] (GW7647 1-30, Wy-14643 4-80, PEA 1-20 mg-kg^−1) is given as “dose-dependently decreased the number of writhing episodes”.
